According to US6579545B2, “Coated chewing gum products containing an antigas agent” (WM. Wrigley Jr. Company, priority 2000, dated 2003):

Excerpt: Analysis of a precipitated calcium carbonate having a median particle size of about 5 microns was done before and after being applied as a coating.

## O=C([O-])[O-].[Ca+2] [precipitated calcium carbonate, calcium carbonate]
After preparing a suspension and applying it to a gum pellet for an antacid gum product
  particle size: 4.9 microns
Before coating
  median particle size: 5.1 microns
